Test results taken from article PMC3097154, “Antiviral activity of α-helical stapled peptides designed from the HIV-1 capsid dimerization domain” (Retrovirology, 2011).
Read-outs that look alike come from different tables or passages of the source. Positions of bridges follow the written chain, without caps; N, C: chain ends. Non-standard residues stand in square brackets, D forms with d. Residues, ends and D or L forms follow the SMILES beside them. S5 = C=CCCC[C@](C)(N)C(=O)O

Assays:
[1] = tested on: GFP-Vpr-labeled HIV-1 virions in SupT1 cells; test: Virus entry, GFP-Vpr-labeled HIV-1 virions, FACS; assay type: cell-based; settings: 111 nM
[2] = tested on: wild type CTD (wtCTD) of HIV-1 CA; test: ITC dilution of CTD dimers in presence of peptide; assay type: binding; settings: for Kdiss (apparent CTD dimer dissociation constant): ITC dilution, 30°C; for 200 μM CTD (fm), estimated fraction of CTD occurring as monomers: calculated from monomer-dimer equilibrium expressions
Protocol: The effect of the dimer interface peptide, NYAD-203, a soluble analog of NYAD-201, on dimer dissociation was first examined by isothermal titration calorimetry (ITC). Dilution of CTD by sequential ITC injections into buffer, pH 7.3, 30°;C gave a series of endothermic heat pulses (Figure 4) consistent with dissociation of protein oligomers modeled as dimers, with dimer dissociation constant (Kdiss) ~15 μM and dissociation enthalpy (ΔHdiss) of 10.7 kcal mole^-1. […] For such a mechanism, the apparent dimer dissociation constant should depend on the free peptide (inhibitor) concentration ([I]) and binding affinity (KI) as follows: [drawing 1]
or an approximate form that might be valid at high inhibitor concentrations: [drawing 2]
where Ci is the total peptide inhibitor concentration in the mixture. This analysis is, however, further complicated by apparent self-association of the peptide (see NMR section) that reduces the availability of free monomer (lower [I]) at higher concentrations and thus leads to underestimation of peptide binding affinities and a concentration dependence of apparent Ki. However, by use of the above equations and extrapolation to low concentrations, we obtain a value of Ki = 40 (±5) μM for the binding of stapled peptide (NYAD-203) monomer to CTD under these conditions.
The influence of the peptides on dimer dissociation of wild type CTD (wtCTD) was investigated by ITC (MicroCal VP-ITC) following established protocols. Proteins were exhaustively dialyzed against the 25 mM sodium phosphate buffer (pH 7.3) prior to experimental measurements. In a typical experiment, the ITC injection syringe was loaded with 250 μM protein, dissolved in dialysis buffer or dialysis buffer/peptide mixture and the calorimetric cell (ca. 1.4 ml active volume) initially contained only the identical buffer mixture. Typically titrations consisted of 28 injections of 10 μl, with 240-s equilibration between injections. The thermodynamic parameters were obtained and data were analyzed using MicroCal Origin 7.0 software, using an updated and corrected (June 2008) version of the dissociation analysis procedure, validated by comparison with earlier analysis methods.

[3] = tested on: monomeric CTD mutant (W184A/M185A); test: Binding to monomeric CTD mutant; set-up: species or system HIV-1; settings: data not shown
[4] = NMR of isolated peptide (self-association); assay type: physicochemical; settings: 20 mM phosphate buffer pH 7.0, 288 K
HIV-1 CA = settings: 25°C, pH 7.3, ideal single-species model, CA alone 41,213
Protocol: In the second set of experiments, the possible effect of NYAD-203 on dimer stability was analyzed by sedimentation equilibrium.
Sedimentation equilibrium experiments were performed using a ProteomeLab XL-A analytical ultracentrifuge using 6-channel centerpieces in an An-60Ti rotor at 25°C. Protein samples were dialyzed into 50 mM sodium phosphate buffer (pH 7.3). […] Radial scans were measured at 280 nm. The data were fitted to an ideal single-species model as well as a rapid monomer-dimer equilibrium using the Beckman XL-A/XL-I Data Analysis Software (Version 6.03).

enfuvirtide [T-20]
inhibition of viral entry [1]: substantially inhibited viral entry

CSCC[C@@H]1NC(=O)[C@H](Cc2c[nH]c3ccccc23)NC(=O)[C@@](C)(NC(=O)[C@H](CCCCN)NC(=O)[C@@H](NC(=O)[C@H](C)NC(=O)[C@H](CCC(N)=O)NC(=O)[C@H](C)N)C(C)C)CCC/C=C\CCC[C@@](C)(C(=O)N[C@H](C(=O)N[C@@H](CC(C)C)C(=O)N[C@@H](CC(C)C)C(=O)N[C@H](C(=O)N[C@@H](C)C(=O)N[C@@H](CCCCN)C(=O)N[C@@H](CCCCN)C(=O)N[C@@H](CCCCN)C(=O)O)C(C)C)[C@@H](C)O)NC(=O)[C@H]([C@@H](C)O)NC1=O [NYAD-203] (H-AQAVK[S5]WMT[S5]TLLVAKKK-OH; staple (Z) 6-10; N-terminus and C-terminus assumed)
Kdiss (apparent CTD dimer dissociation constant) ([2]; CI 50 μM NYAD-203, 25 mM sodium phosphate pH 7.3, 250 μM CTD in syringe): 31.2 (±6.6) μM | 200 μM CTD (fm), estimated fraction of CTD occurring as monomers ([2]; CI 50 μM NYAD-203): 24% | Kdiss (apparent CTD dimer dissociation constant) ([2]; CI 200 μM NYAD-203, pH 7.3): 33.2 (±3.9) μM | 200 μM CTD (fm), estimated fraction of CTD occurring as monomers ([2]; CI 200 μM NYAD-203): 25% | Kdiss (apparent CTD dimer dissociation constant) ([2]; CI 350 μM NYAD-203, pH 7.3): 40.5 (±6.2) μM | 200 μM CTD (fm), estimated fraction of CTD occurring as monomers ([2]; CI 350 μM NYAD-203): 27% | affinity for monomeric CTD mutant (W184A/M185A) [3]: no measurable affinity | self-association of isolated peptide [4]: self-associates to form polymeric species | apparent molecular weight of CA (HIV-1 CA; CA:NYAD-203 = 1:1 (30 μM CA, 30 μM peptide)): 30,343 Daltons | apparent molecular weight of CA (HIV-1 CA; CA:NYAD-203 = 1:3 (30 μM CA, 90 μM peptide)): 27,338 Daltons

IRQGPKEPFRDYVDR [NYAD-401]
ITC heat effect (binding) ([2]; unstapled control peptide): no apparent heat effect
